The record followed here is patent US9169252B2 (BRISTOL-MYERS SQUIBB COMPANY, priority 2014, dated 2015).

Read-outs that look alike come from different tables or passages of the source.

The target in experiment [1] is IRAK4 (Homo sapiens (Human), UniProt Q9NWZ3). The experiment can be described thus: IRAK4 Inhibition Assay. As to conditions: ATP 500 μM; IRAK4 0.6 nM; read-out: IRAK4 IC50. The experiment is classed as biochemical. The procedure, abridged:
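Mobility-shift readout: fluorescent substrate and phosphoproduct resolved electrophoretically on Caliper LabChip 3000 after EDTA quench (35 mM). Enzyme reaction of IRAK4, substrates and test compound ran 60 min at room temperature.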

Experiment [2] concerns TLR2 induced IL-6 in peripheral blood mononuclear cells (PBMCs). In words: PBMC TLR2 Induced IL-6 Assay. It is filed as cell-based, human. Conditions: human PBMCs, lipoteichoic acid stimulated, IL-6 by ELISA; for IC50: read-out: Cell IC50; for EC50: read-out: Cell EC50. In short, it runs like this: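 Lipoteichoic acid at 10 µg/ml served as TLR2 stimulus for 5 hours, following a 30-minute compound pretreatment at 37° C. Cells were Ficoll-isolated human PBMCs, 250000 cells/well, cultured in RPMI plus 10% heat-inactivated FCS.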

IRAK4, sequence (Q9NWZ3 whole entry, species assumed): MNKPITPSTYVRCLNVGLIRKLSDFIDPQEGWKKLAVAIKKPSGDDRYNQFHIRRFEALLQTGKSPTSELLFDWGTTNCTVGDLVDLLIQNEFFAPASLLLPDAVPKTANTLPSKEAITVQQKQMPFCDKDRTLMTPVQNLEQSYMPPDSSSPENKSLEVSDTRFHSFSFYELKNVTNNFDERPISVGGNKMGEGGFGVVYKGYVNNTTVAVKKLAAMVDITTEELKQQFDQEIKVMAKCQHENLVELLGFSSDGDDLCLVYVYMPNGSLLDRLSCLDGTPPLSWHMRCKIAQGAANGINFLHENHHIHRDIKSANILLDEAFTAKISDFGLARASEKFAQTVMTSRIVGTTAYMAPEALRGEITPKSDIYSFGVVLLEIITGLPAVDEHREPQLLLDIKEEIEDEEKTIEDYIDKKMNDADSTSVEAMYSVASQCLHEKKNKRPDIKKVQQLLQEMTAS

As for `CC(C)(F)CCNc1cc(-n2ncc3cc(C#N)c(N)nc32)ncc1C(=O)NC[C@@H](F)C(C)(C)O` [Example 599], the IC50 in experiment [1] came to 4.8 nM; in experiment [2] (Homo sapiens, PBMC), 275 nM.

With `CC(C)(F)CCNc1cc(-n2ncc3cc(C#N)cnc32)ncc1C(=O)NC[C@@H](F)C(C)(C)O` [Example 600], the IC50 came to 5.3 nM in experiment [1] and 477 nM in experiment [2] (Homo sapiens, PBMC).

Regarding `CC(C)(CNc1cc(-n2ncc3cc(C#N)cnc32)ncc1C(=O)NC[C@@H](F)C(C)(C)O)OC(F)F` [Example 601], the IC50 in experiment [1] was determined as 14.2 nM; in experiment [2] (Homo sapiens, PBMC), 490 nM.

`CC[C@@H](F)CNc1cc(-n2ncc3cc(Cl)cnc32)ncc1C(=O)NC[C@@H](F)C(C)(C)O` [Example 602]: the half-maximal inhibitory concentration (IC50) in experiment [1] is 9.3 nM; in experiment [2] (Homo sapiens, PBMC), 233 nM.

For `CC(C)(CNc1cc(-n2ncc3cc(Cl)cnc32)ncc1C(=O)NC[C@@H](F)C(C)(C)O)OC(F)F` [Example 603], the IC50 in experiment [1] came to 6.7 nM; in experiment [2] (Homo sapiens, PBMC), 321 nM.

Consider `CC(C)(O)[C@H](F)CNC(=O)c1cnc(-n2ncc3cc(C#N)cnc32)cc1NCC1CC1` [Example 605], for which the half-inhibitory concentration (IC50) in experiment [1] was 7.5 nM; in experiment [2] (Homo sapiens, PBMC), 165 nM.

Take `CC(C)(O)[C@H](F)CNC(=O)c1cnc(-n2ncc3cc(C#N)cnc32)cc1N[C@H]1CC[C@H](C(C)(C)O)CC1` [Example 606, 6-(5-Cyano-1H-pyrazolo[3,4-b]pyridin-1-yl)-N—((R)-2-fluoro-3-hydroxy-3-methylbutyl)-4-(((1r,4R)-4-(2-hydroxypropan-2-yl)cyclohexyl)amino)nicotinamide]: the half-maximal inhibitory concentration (IC50) in experiment [1] worked out at 4 nM. For the same compound, the EC50 in experiment [2] (Homo sapiens, PBMC) worked out at 127 nM.

With `CC(C)(O)[C@H](F)CNC(=O)c1cnc(-n2ncc3cc(C#N)cnc32)cc1N[C@H]1CC[C@@](C)(O)CC1` [Example 607], the IC50 in experiment [1] stood at 4 nM. In experiment [2] (Homo sapiens, PBMC), the concentration for a half-maximal effect (EC50) was 332 nM.

On to `CC(C)(O)[C@H](F)CNC(=O)c1cnc(-n2ncc3cc(C#N)cnc32)cc1N[C@H]1CC[C@](C)(O)CC1` [Example 608], for which the IC50 in experiment [1] was determined as 12.6 nM. Besides, the EC50 in experiment [2] (Homo sapiens, PBMC) was found to be 318 nM.

As for `CC(C)(O)[C@H]1CCC[C@@H](Nc2cc(-n3ncc4cc(C#N)cnc43)ncc2C(=O)NC[C@@H](F)C(C)(C)O)C1` [Example 612], the IC50 in experiment [1] was 5.6 nM. Moreover, in experiment [2] (Homo sapiens, PBMC), the EC50 is 163 nM and the IC50 is 262 nM.

Regarding `CC(C)(O)[C@H](F)CNC(=O)c1cnc(-n2ncc3cc(C#N)cnc32)cc1NC12CCC(O)(CC1)C2` [Example 613], the IC50 was 2.8 nM in experiment [1] and 130 nM in experiment [2] (Homo sapiens, PBMC). In addition, in experiment [2] (Homo sapiens, PBMC), the half-maximal effective concentration (EC50) was determined as 157 nM.

Take `CC(C)(O)[C@H](F)CNC(=O)c1cnc(N2CCc3cc(C#N)cnc32)cc1NC1CC1` [Example 616]: the IC50 in experiment [1] was found to be 10.9 nM. For the same compound, in experiment [2] (Homo sapiens, PBMC), the EC50 was 305 nM and the half-inhibitory concentration (IC50) worked out at 425 nM.

For `CC(C)(O)[C@H]1CC[C@H](Nc2cc(-n3ncc4cc(C#N)cnc43)ncc2C(=O)NC[C@@H](F)C(C)(C)O)C1` [Example 617], the IC50 in experiment [1] was found to be 2.8 nM; in experiment [2] (Homo sapiens, PBMC) it was 485 nM.

Take `CC(C)(O)[C@H](F)CNC(=O)c1cnc(-n2ncc3cc(F)cnc32)cc1NC1CCC(F)C1` (stereo partly drawn) [Example 620]: in experiment [1], the 50% inhibitory concentration (IC50) amounted to 3.4 nM. Moreover, in experiment [2], the EC50 worked out at 114 nM.

As for `CC(C)(O)[C@H](F)CNC(=O)c1cnc(-n2ncc3cc(F)cnc32)cc1NC1CCC(F)C1` (stereo partly drawn) [Example 621], the half-maximal inhibitory concentration (IC50) in experiment [1] amounted to 4 nM. For the same compound, the EC50 in experiment [2] was 139 nM.

In the case of `CC(C)(O)[C@H](F)CNC(=O)c1cnc(-n2ncc3cc(C#N)cnc32)cc1N[C@H]1CC[C@H](NC2COC2)CC1` [Example 622], the IC50 in experiment [1] was 5.2 nM; in experiment [2] (Homo sapiens, PBMC), 132 nM.

Consider `CC(C)(O)[C@H](F)CNC(=O)c1cnc(-n2ncc3cc(C#N)cnc32)cc1N[C@H]1CC[C@H](NC(=O)C2CC2)CC1` [Example 623], for which the IC50 in experiment [1] was found to be 5.2 nM; in experiment [2] (Homo sapiens, PBMC), 484 nM.

In the case of `CC(C)(O)[C@H](F)CNC(=O)c1cnc(-n2ncc3cc(C#N)cnc32)cc1NC12CC3CC(CC(O)(C3)C1)C2` [Example 624], the IC50 in experiment [1] stood at 2.1 nM; in experiment [2] (Homo sapiens, PBMC) it was 68 nM.

As for `CC(C)(O)[C@H]1CC[C@H](Nc2cc(-n3ncc4cc(Cl)cnc43)ncc2C(=O)NC[C@@H](F)C(C)(C)O)C1` [Example 628], the IC50 was found to be 3.3 nM in experiment [1] and 148 nM in experiment [2] (Homo sapiens, PBMC).

For the compound `CNC(=O)[C@H]1CC[C@H](NC(=O)c2cnc(-n3ncc4cc(C#N)c(N)nc43)cc2N[C@@H]2CCCC[C@H]2F)CC1` [Example 629], the IC50 in experiment [1] turned out to be 3.3 nM; in experiment [2] (Homo sapiens, PBMC) it was 135 nM.

`CNC(=O)[C@H]1CC[C@H](NC(=O)c2cnc(-n3ncc4cc(C#N)c(N)nc43)cc2N[C@H]2CCCC[C@@H]2F)CC1` [Example 630]: the half-maximal inhibitory concentration (IC50) is 2.2 nM in experiment [1] and 30 nM in experiment [2] (Homo sapiens, PBMC).

For `CC(C)(O)[C@H](F)CNC(=O)c1cnc(-n2ncc3cc(C#N)c(N)nc32)cc1NC1CC1` [Example 631], the IC50 worked out at 3.4 nM in experiment [1] and 66 nM in experiment [2] (Homo sapiens, PBMC).

As to `CC(C)(O)[C@H](F)CNC(=O)c1cnc(-n2ncc3cc(C#N)c(N)nc32)cc1NC12CC3CC(CC(O)(C3)C1)C2` [Example 632], the IC50 in experiment [1] was 2.6 nM; in experiment [2] (Homo sapiens, PBMC), 149 nM.

Consider `CC(C)(O)[C@H](F)CNC(=O)c1cnc(-n2ncc3cc(C#N)cnc32)cc1N[C@H]1CC[C@H](NC(=O)C(F)F)CC1` [Example 633], for which the concentration for half-maximal inhibition (IC50) came to 3.3 nM in experiment [1] and 257 nM in experiment [2] (Homo sapiens, PBMC).

For `CC(C)(O)[C@H](F)CNC(=O)c1cnc(-n2ncc3cc(C#N)cnc32)cc1N[C@H]1CC[C@H](NC(=O)c2ccccc2F)CC1` [Example 634], the concentration for half-maximal inhibition (IC50) was found to be 3.9 nM in experiment [1] and 277 nM in experiment [2] (Homo sapiens, PBMC).

With `CC(C)(O)[C@H](F)CNC(=O)c1cnc(-n2ncc3cc(C#N)cnc32)cc1NC12CC(C1)C2` [Example 635], the half-inhibitory concentration (IC50) in experiment [1] came out at 1.8 nM; in experiment [2] (Homo sapiens, PBMC), 375 nM.

For the compound `CC(C)(F)[C@H](F)CNC(=O)c1cnc(-n2ncc3cc(C#N)cnc32)cc1NC12CC3CC(CC(O)(C3)C1)C2` [Example 636], the half-inhibitory concentration (IC50) in experiment [1] worked out at 3 nM; in experiment [2] (Homo sapiens, PBMC) it was 293 nM.

As for `CC(C)(O)[C@H](F)CNC(=O)c1cnc(-n2ncc3cc(C#N)c(N)nc32)cc1NC12CC(C1)C2` [Example 637], the IC50 in experiment [1] is 1.5 nM; in experiment [2] (Homo sapiens, PBMC) it was 165 nM.

With `CC(C)NC(=O)[C@H]1CC[C@H](Nc2cc(-n3ncc4cc(C#N)cnc43)ncc2C(=O)NC[C@@H](F)C(C)(C)O)CC1` [Example 641], the 50% inhibitory concentration (IC50) in experiment [1] turned out to be 6.4 nM; in experiment [2] (Homo sapiens, PBMC), 718 nM.

On to `CC(C)(O)[C@H](F)CNC(=O)c1cnc(-n2ncc3cc(C#N)cnc32)cc1NC1CC(F)(F)C1` [Example 644], for which the IC50 was determined as 4.3 nM in experiment [1] and 89 nM in experiment [2] (Homo sapiens, PBMC).
